Test results from patent publication US11566007B2, “Ras inhibitors” (Revolution Medicines, Inc., priority 2019, dated 2023).
pIC50: −log10 of the molar value.

Assays:
KRAS G12D = KRAS G12D (Homo sapiens (Human), UniProt P01116+P62937, G12D); assay: Ras-Raf (BRAF RBD) disruption / FRET / MOA assay, KRAS G12D; format: biochemical; conditions: Ras-Raf disruption/FRET/MOA assay; class symbols; read-out: KRAS G12D FRET data IC50
Experimental: (§1) The purpose of this biochemical assay is to measure the ability of test compounds to facilitate ternary complex formation between a nucleotide-loaded Ras isoform and cyclophilin A; the resulting ternary complex disrupts binding to a BRAF^RBD construct, inhibiting Ras signaling through a RAF effector.
(§2) Compound is present in plate wells as a 10-point 3-fold dilution series starting at a final concentration of 30 μM. After incubation at 25° C. for 3 hours, a mixture of Anti-His Eu-W1024 and anti-GST allophycocyanin is then added to assay sample wells at final concentrations of 10 nM and 50 nM, respectively, and the reaction incubated for an additional 1.5 hours. […] Compounds that facilitate disruption of a Ras:RAF complex are identified as those eliciting a decrease in the TR-FRET ratio relative to DMSO control wells.
(§3) This protocol may also be executed substituting other Ras proteins or nucleotides.
(§4) The purpose of this biochemical assay was to measure the ability of test compounds to facilitate ternary complex formation between a nucleotide-loaded K-Ras isoform and Cyclophilin A; the resulting ternary complex disrupts binding to a BRAF^RBD construct, inhibiting K-Ras signaling through a RAF effector. Data is reported as IC50 values.
as §2, with “Compound was” for “Compound is”, “allophycocyanin was” for “allophycocyanin is”, “a K-Ras:RAF” for “a Ras:RAF”, “complex were” for “complex are”

KRAS G12S = KRAS G12S (Homo sapiens (Human), UniProt P01116+P62937, G12S); assay: Ras-Raf (BRAF RBD) disruption / FRET / MOA assay, KRAS G12S; format: biochemical; conditions: Ras-Raf disruption/FRET/MOA assay; class symbols; read-out: KRAS G12S FRET data IC50
Chain of KRAS G12S (P01116-2 other isoform, or with tags, fused parts or gaps G12S): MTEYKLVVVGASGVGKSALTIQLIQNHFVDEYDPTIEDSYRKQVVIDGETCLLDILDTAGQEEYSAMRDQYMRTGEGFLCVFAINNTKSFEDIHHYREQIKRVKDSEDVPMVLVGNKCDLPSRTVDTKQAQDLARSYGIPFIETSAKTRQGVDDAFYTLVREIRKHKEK
Chain of KRAS G12S (P62937 whole entry): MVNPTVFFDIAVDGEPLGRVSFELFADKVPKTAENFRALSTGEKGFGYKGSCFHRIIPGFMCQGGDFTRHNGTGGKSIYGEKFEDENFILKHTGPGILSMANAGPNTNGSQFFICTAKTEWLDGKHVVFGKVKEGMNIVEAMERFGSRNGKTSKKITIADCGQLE
Experimental: as §1, §2, §3, §4
as §2, with “Compound was” for “Compound is”, “allophycocyanin was” for “allophycocyanin is”, “a K-Ras:RAF” for “a Ras:RAF”, “complex were” for “complex are”

Chain of KRAS G12D (P01116-2 other isoform, or with tags, fused parts or gaps G12D): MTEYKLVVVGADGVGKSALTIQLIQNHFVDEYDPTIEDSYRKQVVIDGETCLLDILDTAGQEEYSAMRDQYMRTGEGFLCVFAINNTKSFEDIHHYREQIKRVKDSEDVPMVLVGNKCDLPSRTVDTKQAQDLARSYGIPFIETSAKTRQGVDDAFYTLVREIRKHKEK
Chain of KRAS G12D (P62937 whole entry, canonical isoform): as the sequence (P62937 whole entry) above

Row | SMILES | pIC50 (KRAS G12D) | pIC50 (KRAS G12S)
1 | C=CC(=O)N1CC(C(=O)N(C)[C@H](C(=O)N[C@H]2Cc3cc(O)cc(c3)-c3ccc4c(c3)c(c(-c3cccnc3COC)n4CC)CC(C)(C)COC(=O)[C@@H]3CCCN(N3)C2=O)C(C)C)C1 (single isomer, unassigned) [Example A070] | 5.00 to 6.00 | 6.00 to 7.00
2 | C=CC(=O)N1CC[C@H](C(=O)N(C)[C@H](C(=O)N[C@H]2Cc3cc(O)cc(c3)-c3ccc4c(c3)c(c(-c3ccccc3CN(C)C)n4CC)CC(C)(C)COC(=O)[C@@H]3CCCN(N3)C2=O)C(C)C)C1 [Example A005] | 5.00 to 6.00 | 6.00 to 7.00
3 | C=CC(=O)N1CC[C@H](C(=O)N(C)[C@H](C(=O)N[C@H]2Cc3cc(O)cc(c3)-c3ccc4c(c3)c(c(-c3ccccc3CCOC)n4CC)CC(C)(C)COC(=O)[C@@H]3CCCN(N3)C2=O)C2CCOCC2)C1 [Example A006] | < 5.00 | 5.00 to 6.00
4 | C=CC(=O)N1CC[C@H](C(=O)N(C)[C@H](C(=O)N[C@H]2Cc3cc(OC(=O)CN)cc(c3)-c3ccc4c(c3)c(c(-c3ccccc3CCOC)n4CC)CC(C)(C)COC(=O)[C@@H]3CCCN(N3)C2=O)C(C)C)C1 [Example A008] | < 5.00 | 5.00 to 6.00
5 | C=CC(=O)N1CC[C@H](C(=O)N(C)[C@H](C(=O)N[C@H]2Cc3cc(cc(O)c3F)-c3ccc4c(c3)c(c(-c3ccccc3CCOC)n4CC)CC(C)(C)COC(=O)[C@@H]3CCCN(N3)C2=O)C(C)C)C1 [Example A009] | < 5.00 | < 5.00
6 | C=CC(=O)N1CC[C@H](C(=O)N(C)[C@H](C(=O)N[C@H]2Cc3cc(O)cc(c3)-c3ccc4c(c3)c(c(-c3ccc(CN5CCCC5)cc3)n4CC)CC(C)(C)COC(=O)[C@@H]3CCCN(N3)C2=O)C(C)C)C1 [Example A010] | < 5.00 | 5.00 to 6.00
7 | C=CC(=O)N1CCCN(C(=O)N(C)[C@H](C(=O)N[C@H]2Cc3cc(O)cc(c3)-c3ccc4c(c3)c(c(-c3ccccc3CCOC)n4CC)CC(C)(C)COC(=O)[C@@H]3CCCN(N3)C2=O)C(C)C)CC1 [Example A013] | < 5.00 | 5.00 to 6.00
8 | C=CC(=O)N1CCC(C(=O)N(C)[C@H](C(=O)N[C@H]2Cc3cc(O)cc(c3)-c3ccc4c(c3)c(c(-c3ccccc3CCOC)n4CC)CC(C)(C)COC(=O)[C@@H]3CCCN(N3)C2=O)C(C)C)CC1 [Example A014] | < 5.00 | 5.00 to 6.00
9 | C=CC(=O)N1CC[C@H](C(=O)N(C)[C@H](C(=O)N[C@H]2Cc3cc(O)cc(c3)-c3ccc4c(c3)c(c(-c3ccccc3OC)n4CC)CC(C)(C)COC(=O)[C@@H]3CCCN(N3)C2=O)C(C)C)C1 [Example A017] | < 5.00 | 5.00 to 6.00
10 | C=CC(=O)N1CCN(C(=O)N(C)[C@H](C(=O)N[C@H]2Cc3cc(O)cc(c3)-c3ccc4c(c3)c(c(-c3ccccc3CCOC)n4CC)CC(C)(C)COC(=O)[C@@H]3CCCN(N3)C2=O)C(C)C)CC1 [Example A018] | < 5.00 | 5.00 to 6.00
11 | C=CC(=O)N1CCC(F)(C(=O)N(C)[C@H](C(=O)N[C@H]2Cc3cc(O)cc(c3)-c3ccc4c(c3)c(c(-c3ccccc3CN(C)C)n4CC)CC(C)(C)COC(=O)[C@@H]3CCCN(N3)C2=O)C(C)C)CC1 [Example A020] | < 5.00 | 5.00 to 6.00
12 | C=CC(=O)N1CC[C@H](C(=O)N(C)[C@H](C(=O)N[C@H]2Cc3cc(O)cc(c3)-c3ccc4c(c3)c(c(-c3ccc(CC(=O)O)cc3)n4CC)CC(C)(C)COC(=O)[C@@H]3CCCN(N3)C2=O)C(C)C)C1 [Example A021] | < 5.00 | < 5.00
13 | C=CC(=O)N1CC[C@H](C(=O)N(C)[C@H](C(=O)N[C@H]2Cc3cc(O)cc(c3)-c3ccc4c(c3)c(c(-c3ccccc3[C@H](C)OC)n4CC)CC(C)(C)COC(=O)[C@@H]3CCCN(N3)C2=O)C(C)C)C1 [Example A022] | 5.00 to 6.00 | 6.00 to 7.00
14 | C=CC(=O)N1CC[C@H](C(=O)N(C)[C@H](C(=O)N[C@H]2Cc3cccc(c3)-c3ccc4c(c3)c(c(-c3ccccc3CCOC)n4CC)CC(C)(C)COC(=O)[C@@H]3CCCN(N3)C2=O)C(C)C)C1 [Example A024] | < 5.00 | < 5.00
15 | C=CC(=O)N1CC[C@H](C(=O)N(C)[C@H](C(=O)N[C@H]2Cc3cc(O)cc(c3)-c3ccc4c(c3)c(c(-c3ccccc3COC)n4CC)CC(C)(C)COC(=O)[C@@H]3CCCN(N3)C2=O)C2CCCC2)C1 [Example A027] | < 5.00 | 6.00 to 7.00
16 | C=CC(=O)N1CC[C@H](C(=O)N(C)[C@H](C(=O)N[C@H]2Cc3cc(O)cc(c3)-c3ccc4c(c3)c(c(-c3ccccc3[C@@H](C)OC)n4CC)CC(C)(C)COC(=O)[C@@H]3CCCN(N3)C2=O)C(C)C)C1 [Example A029] | 5.00 to 6.00 | 6.00 to 7.00

Row | SMILES | pIC50 (KRAS G12D) | pIC50 (KRAS G12S)
17 | C=CC(=O)N1CC[C@H](C(=O)N(C)[C@H](C(=O)N[C@H]2Cc3cc(O)cc(c3)-c3ccc4c(c3)c(c(-c3cccc(CN(C)C)c3)n4CC)CC(C)(C)COC(=O)[C@@H]3CCCN(N3)C2=O)C(C)C)C1 [Example A030] | < 5.00 | 5.00 to 6.00
18 | C=CC(=O)N1CC2(CCN([C@H](C(=O)N[C@H]3Cc4cc(O)cc(c4)-c4ccc5c(c4)c(c(-c4ccccc4CCOC)n5CC)CC(C)(C)COC(=O)[C@@H]4CCCN(N4)C3=O)C(C)C)C2=O)C1 [Example A031] | < 5.00 | 5.00 to 6.00
19 | C=CC(=O)N1CC[C@H](C(=O)N(C)[C@H](C(=O)N[C@H]2Cc3cc(OC(=O)CCC(=O)O)cc(c3)-c3ccc4c(c3)c(c(-c3ccccc3CCOC)n4CC)CC(C)(C)COC(=O)[C@@H]3CCCN(N3)C2=O)C(C)C)C1 [Example A032] | < 5.00 | 
20 | C=CC(=O)N1CC[C@H](C(=O)N(C)[C@H](C(=O)N[C@H]2Cc3cc(O)cc(c3)-c3ccc4c(c3)c(c(-c3ccccc3CCOC)n4C(C)(C)C#N)CC(C)(C)COC(=O)[C@@H]3CCCN(N3)C2=O)C(C)C)C1 [Example A034] | 5.00 to 6.00 | 
21 | C=CC(=O)N1CC[C@H](C(=O)N(C)[C@H](C(=O)N[C@H]2Cc3cc(O)cc(c3)-c3ccc4c(c3)c(c(-c3ccc(C5CCN(C)CC5)cc3)n4CC)CC(C)(C)COC(=O)[C@@H]3CCCN(N3)C2=O)C(C)C)C1 [Example A039] | 5.00 to 6.00 | 5.00 to 6.00
22 | C=CC(=O)N1CC[C@H](C(=O)N(C)[C@H](C(=O)N[C@H]2Cc3cc(O)cc(c3)-c3ccc4c(c3)c(c(-c3ccc5c(c3)CCN(C)C5)n4CC)CC(C)(C)COC(=O)[C@@H]3CCCN(N3)C2=O)C(C)C)C1 [Example A040] | < 5.00 | 5.00 to 6.00
23 | C=CC(=O)N1C[C@H](C)[C@H](C(=O)N(C)[C@H](C(=O)N[C@H]2Cc3cc(O)cc(c3)-c3ccc4c(c3)c(c(-c3ccccc3CCOC)n4CC)CC(C)(C)COC(=O)[C@@H]3CCCN(N3)C2=O)C(C)C)C1 [Example A041] | < 5.00 | 6.00 to 7.00
24 | C=CC(=O)N1CC[C@H](C(=O)N(C)[C@H](C(=O)N[C@H]2Cc3cc(N)cc(c3)-c3ccc4c(c3)c(c(-c3ccccc3COC)n4CC)CC(C)(C)COC(=O)[C@@H]3CCCN(N3)C2=O)C(C)C)C1 [Example A042] | < 5.00 | < 5.00
25 | C=CC(=O)N1C[C@H](C)[C@H](C(=O)N(C)[C@H](C(=O)N[C@H]2Cc3cc(O)cc(c3)-c3ccc4c(c3)c(c(-c3ccccc3CN(C)C)n4CC)CC(C)(C)COC(=O)[C@@H]3CCCN(N3)C2=O)C2CCCC2)C1 [Example A043] | 5.00 to 6.00 | 6.00 to 7.00
26 | C=CC(=O)N1CC[C@H](C(=O)N(C)[C@H](C(=O)N[C@H]2Cc3cc(O)cc(c3)-c3ccc4c(c3)c(c(-c3cccnc3COCC)n4CC)CC(C)(C)COC(=O)[C@@H]3CCCN(N3)C2=O)C(C)C)C1 [Example A044] | 5.00 to 6.00 | 6.00 to 7.00
27 | C=CC(=O)N1CC[C@H](C(=O)N(C)[C@H](C(=O)N[C@H]2Cc3cc(O)cc(c3)-c3ccc4c(c3)c(c(-c3cncc(C#N)c3)n4CC)CC(C)(C)COC(=O)[C@@H]3CCCN(N3)C2=O)C(C)C)C1 [Example A062] | < 5.00 | 
28 | C=CC(=O)N1CC[C@H](C(=O)N(C)[C@H](C(=O)N[C@H]2Cc3cc(O)cc(c3)-c3ccc4c(c3)c(c(-c3cnccc3[C@H](C)OC)n4CC)CC(C)(C)COC(=O)[C@@H]3CCCN(N3)C2=O)C(C)C)C1 [Example A076] | 6.00 to 7.00 | 
29 | C=CC(=O)N1CC[C@H](C(=O)N(C)[C@H](C(=O)N[C@H]2Cc3cc(O)cc(c3)-c3ccc4c(c3)c(c(-c3cc(F)cnc3COC)n4CC)CC(C)(C)COC(=O)[C@@H]3CCCN(N3)C2=O)C(C)C)C1 [Example A082] | 5.00 to 6.00 | 
30 | C=CC(=O)N1CC[C@H](C(=O)N(C)[C@H](C(=O)N[C@H]2Cc3cc(O)cc(c3)-c3ccc4c(c3)c(c(-c3cnccc3COC)n4CC)CC(C)(C)COC(=O)[C@@H]3CCCN(N3)C2=O)C(C)C)C1 [Example A091] | 5.00 to 6.00 | 
31 | CCn1c(-c2cccnc2COC)c2c3cc(ccc31)-c1cc(O)cc(c1)C[C@H](NC(=O)[C@H](C(C)C)N(C)C(=O)[C@H]1CCN(C(=O)C#CCN(C)C)C1)C(=O)N1CCC[C@H](N1)C(=O)OCC(C)(C)C2 [Example A096] | 5.00 to 6.00 | 
32 | C=CC(=O)N1CC[C@H](C(=O)N(C)[C@H](C(=O)N[C@H]2Cc3cc(O)cc(c3)-c3ccc4c(c3)c(c(-c3ccccc3CO)n4CC)CC(C)(C)COC(=O)[C@@H]3CCCN(N3)C2=O)C(C)C)C1 [Examples A004] | < 5.00 | 
